The test in a line: ET-1 Assay: Fibroblasts (primary human lung and dermal, HFL-1, 3T3 etc) are seeded in 96-well plates at ~15000 cells/well and serum starved for 0-48 hours. After media exchange, compounds serially diluted in DMSO are added to the cells. After a brief incubation of ~30 min, stimulants (TGFb, serum, LPA etc) are added followed by further incubation for 16-48 hours. Media is then harvested and stored frozen in plate format for later endothelin-1 (ET-1) determination by ELISA. Toxicity measurements are made using the ATPlite kit (Perkin-Elmer). ET-1 is quantified using an ELISA kit (R&D Systems). The amount of ET-1 produced in the assay wells are back-calculated using the ELISA standard. The ability of a compound to inhibit ET-1 production is typically analyzed by fitting dose-response curves to a 4-parameter logistic function to obtain an EC50 value. Particulars: HFL1.
Turning to `O=c1ccc(-c2ccc(F)cc2)nn1-c1ccc(OC(F)(F)F)cc1`, the EC50 is > 200 µM.

In the case of `COCCOc1ccc(Oc2cc(=O)n(-c3ccc(OC(F)(F)F)cc3)cc2-c2cnn(C)c2)cc1`, the EC50 entry is “in the range around 125 µM”. The same measure for `CCOc1ccc(CNc2cc(=O)n(-c3ccc(OC(F)(F)F)cc3)cc2-c2cnn(C)c2)c(F)c1`: < 50 µM; for `CCOc1ccc(-n2cc(-c3cnn(C)c3)c(NCc3ccncc3)cc2=O)c(C)c1`: “in the range around 125 µM”. With `CCc1cc(=O)n(-c2ccc(OC(F)(F)F)cc2)cc1-c1ccc(F)cc1`, the EC50 result is “in the range around 125 µM”. The same measure for `CCn1nc2c(-c3cnn(C)c3)cn(-c3ccc(OCCOC)cc3)c(=O)c2n1`: “in the range around 125 µM”; for `CCOc1ccc(-n2cc(-c3cnn(C)c3)c(NCc3cccnc3)cc2=O)c(C)c1`: < 50 µM. The result for `Cn1cc(-c2cn(-c3ccc(OC(F)(F)F)cc3)c(=O)c3c2ccn3Cc2ccccc2)cn1` reads < 50 µM; that for `Cc1cc(=O)n(-c2ccccc2F)cc1-c1cnn(C)c1`, > 200 µM. The result for `Cc1cc(=O)n(-c2ccc3c(c2)OCCO3)cc1-c1cnn(C)c1` reads > 200 µM; that for `CCOc1ccc(CNc2cc(=O)n(-c3ccc(OC(F)(F)F)cc3)cc2-c2cnn(C)c2)cc1`, < 50 µM.

For the compound `COc1cccc(-n2cc(-c3cccc(Cl)c3)ccc2=O)c1`, the EC50 is < 50 µM.

As for `CC(=O)Nc1cccc(-n2cc(Br)ccc2=O)c1`, the EC50 is > 200 µM. The result for `Cc1cc(=O)n(-c2ccc(OC(F)(F)F)cc2)cc1-c1ccc2cn(C)nc2c1` reads “in the range around 125 µM”; that for `NS(=O)(=O)c1ccc(-c2ccc(=O)n(-c3cccc(C(F)(F)F)c3)c2)cc1`, > 200 µM; that for `CCOc1ccc(-n2cc(-c3cnn(C)c3)c(OCCOC)cc2=O)c(C)c1`, < 50 µM.

Take `CCOc1ccc(-n2cc(-c3cn[nH]c3)c3cc[nH]c3c2=O)c(C)c1`: the EC50 was < 50 µM.

As to `O=c1c2nccnc2c(-c2cnn(CCO)c2)cn1-c1ccc(OC(F)(F)F)cc1`, the EC50 result is “in the range around 125 µM”. The result for `CCOc1ccc(-n2cc(Br)c3nccnc3c2=O)c(C)c1` reads < 50 µM; that for `CCOc1ccc(-n2cc(-c3ccnnc3)c3nn(CC)nc3c2=O)c(C)c1`, < 50 µM. Turning to `COCCOc1ccc(-n2cc(-c3cnn(C)c3)c(Oc3ccccc3)cc2=O)cc1`, the EC50 is < 50 µM.

For `CC(C)n1ccc2c(-c3cn[nH]c3)cn(-c3ccc(OC(F)(F)F)cc3)c(=O)c21`, the EC50 was < 50 µM.

In the case of `O=c1c2[nH]ccc2c(-c2ccc(F)cc2)cn1-c1ccc(OC(F)(F)F)cc1`, the EC50 was < 50 µM. Take `Cn1cc(-c2cn(-c3ccc(OC(F)(F)F)cc3)c(=O)c3cccnc23)cn1`: the EC50 is < 50 µM. The same measure for `O=c1cc(NCc2ccccc2)c(-c2ccc(F)cc2)cn1-c1ccc(OC(F)(F)F)cc1`: > 200 µM. For the compound `O=c1c2nccnc2ccn1-c1ccc(OC(F)(F)F)cc1`, the EC50 was < 50 µM. The same measure for `O=C(NCc1ccccc1)Nc1cc(=O)n(-c2ccc(OC(F)(F)F)cc2)cc1-c1ccc(F)cc1`: > 200 µM; for `CC(=O)Nc1cc(=O)n(-c2ccc(OC(F)(F)F)cc2)cc1-c1cnn(C)c1`: > 200 µM; for `CCn1ccc2c(-c3cnn(C)c3)c[nH]c(=O)c21`: < 50 µM. On to `Cc1cc(=O)n(-c2ccc(OC(F)(F)F)cc2)cc1-c1ccc(-c2cncs2)cc1`, for which the EC50 entry is “in the range around 125 µM”. The same measure for `O=c1c2c(ccn2C2CC2)c(-c2cn[nH]c2)cn1-c1ccc(OC(F)(F)F)cc1`: < 50 µM. Regarding `Cc1cc(=O)[nH]cc1-c1ccc2c(c1)OCC(=O)N2C`, the EC50 is < 50 µM. The same measure for `CCOc1ccc(-n2cc(-c3cnn(C)c3)c(N(C)Cc3ccccc3)cc2=O)c(C)c1`: < 50 µM; for `Cc1ccc(=O)n(-c2ccccc2F)c1`: > 200 µM.

With `O=c1ccc(-c2cccc(Cl)c2)cn1-c1cccc(F)c1`, the EC50 was < 50 µM. The same measure for `Cc1cc(=O)n(-c2cccc3c2OCCO3)cc1-c1ccc(F)cc1`: “in the range around 125 µM”. The result for `CC(=O)c1ccc(=O)n(-c2ccccc2Cl)c1` reads “in the range around 125 µM”; that for `CCOc1ccc(-n2cc(-c3cnn(C)c3)c3c(c2=O)CCCC3)c(C)c1`, < 50 µM; that for `O=c1c2c(c(-c3ccc(F)cc3)cn1-c1ccc(OC(F)(F)F)cc1)NCCC2`, > 200 µM. For the compound `CCOc1ccc(-n2cc(-c3ccc(F)cc3)c(OC)cc2=O)c(C)c1`, the EC50 was < 50 µM. The same measure for `Nc1cc(=O)n(-c2ccc(OC(F)(F)F)cc2)cc1-c1ccc(F)cc1`: “in the range around 125 µM”; for `O=C1CCCN1CCOc1cc(=O)n(-c2ccc(OC(F)(F)F)cc2)cc1-c1ccc(F)cc1`: > 200 µM; for `Cn1cc(C2=CN(c3ccc(OC(F)(F)F)cc3)CC=C2Oc2ccc(C(N)=O)cc2)cn1`: < 50 µM.

`CCOc1ccc(-n2cc(-c3cnn(C)c3)c(OC)cc2=O)c(C)c1`: the EC50 is < 50 µM. For the compound `Cn1cc(-c2cn(-c3ccc(OC(F)(F)F)cc3)c(=O)cc2Nc2ccccc2)cn1`, the EC50 was > 200 µM. Regarding `CC(C)Oc1ccc(-n2cc(Br)ccc2=O)cc1`, the EC50 was > 200 µM. With `N#Cc1cc(=O)n(-c2ccc(OC(F)(F)F)cc2)cc1-c1ccc(F)cc1`, the EC50 is > 200 µM. The result for `CC(=O)Nc1cccc(-n2cc(-c3ccccc3)c(C)cc2=O)c1` reads > 200 µM; that for `Cn1cc(-c2cn(-c3ccc(OC(F)(F)F)cc3)c(=O)cc2OCCN2CCOCC2=O)cn1`, “in the range around 125 µM”; that for `Cn1cc(-c2c[nH]c(=O)cc2NCc2ccccn2)cn1`, “in the range around 125 µM”. Regarding `Cc1nc2c(=O)n(-c3ccc(OC(F)(F)F)cc3)cc(-c3cn[nH]c3)c2n1C`, the EC50 is < 50 µM. `CCOc1ccc(-n2cc(-c3cn[nH]c3)c3nccnc3c2=O)c(C)c1`: the EC50 was < 50 µM. The same measure for `Cc1ccc(=O)n(Cc2ccccc2)c1`: > 200 µM; for `Cn1cc(-c2cn(-c3ccc(OC(F)(F)F)cc3)c(=O)cc2NCCc2ccccc2)cn1`: > 200 µM; for `Cc1cc(=O)n(-c2ccc(OC(F)(F)F)cc2)cc1-c1cccc2c1OCO2`: < 50 µM. The result for `CCOc1ccc(-n2cc(-c3cn[nH]c3)ccc2=O)c(C)c1` reads < 50 µM.

Take `CCn1cnc2c(-c3cnn(C)c3)c[nH]c(=O)c21`: the EC50 entry is “in the range around 125 µM”. Regarding `CC(=O)n1cc(-c2ccc(=O)n(-c3ccccc3)c2)cn1`, the EC50 is > 200 µM.

With `O=c1c2nc[nH]c2c(-c2ccc(F)cc2)cn1-c1ccc(OC(F)(F)F)cc1`, the EC50 was > 200 µM. The result for `CCOC(=O)Nc1cc(=O)n(-c2ccc(OC(F)(F)F)cc2)cc1-c1ccc(F)cc1` reads > 200 µM; that for `Cc1ccc(=S)n(-c2ccc(F)cc2)c1`, > 200 µM. Turning to `COc1cccc(-n2cc(-c3cn[nH]c3)ccc2=O)c1`, the EC50 was > 200 µM.

On to `Cn1cc(-c2cn(-c3ccc(F)cc3)c(=O)cc2Oc2ccccc2)cn1`, for which the EC50 was < 50 µM. As to `Cc1cc(=O)n(-c2ccc(OC(F)(F)F)cc2)cc1-c1ccc2scnc2c1`, the EC50 was < 50 µM. Regarding `Cc1cc(=O)n(-c2ccc(OC(F)(F)F)cc2)cc1-c1ccc2c(c1)OCC(=O)N2C`, the EC50 was < 50 µM. The same measure for `CC(=O)c1ccc(=O)n(-c2ccc(Cl)cc2)c1`: > 200 µM; for `O=c1ccc2c(n1-c1ccc(OC(F)(F)F)cc1)CCC2`: “in the range around 125 µM”; for `Cc1cc(=O)n(-c2ccc3[nH]cnc3c2)cc1-c1cnn(C)c1`: > 200 µM. As to `Cc1cc(=O)n(-c2ccc(OC(F)(F)F)cc2)cc1-c1ccc2c(ccn2C)c1`, the EC50 was > 200 µM.

On to `Cc1ccc(=S)n(-c2ccc(OC(C)C)cc2)c1`, for which the EC50 was > 200 µM.

As for `COc1ccc(-c2ccc(=O)n(-c3cncnc3)c2)cc1`, the EC50 was > 200 µM.

Turning to `O=c1ccc(-c2cccc(Cl)c2)cn1-c1ccccc1F`, the EC50 entry was “in the range around 125 µM”. The same measure for `Cn1cc(-c2cn(-c3ccc(Cl)cc3)c(=O)cc2Oc2ccccc2)cn1`: < 50 µM; for `Cn1cc(-c2cn(-c3ccc(OC(F)(F)F)cc3)c(=O)c3nccnc23)cn1`: < 50 µM; for `Cn1ccc2c(-c3cn[nH]c3)cn(-c3ccc(OC(F)(F)F)cc3)c(=O)c21`: < 50 µM. For the compound `O=c1c2c(ccn2Cc2ccccc2)c(-c2ccc(F)cc2)cn1-c1ccc(OC(F)(F)F)cc1`, the EC50 is > 200 µM. `O=c1ccc(C(F)(F)F)cn1-c1cccc(F)c1`: the EC50 is > 200 µM. Regarding `Cc1cc(=O)n(-c2ccc(OC(F)(F)F)cc2)cc1-c1ccc2c(c1)OCO2`, the EC50 entry was “in the range around 125 µM”. As for `Cn1cc(-c2cn(-c3ccc(Cl)cc3)c(=O)c3[nH]ccc23)cn1`, the EC50 was < 50 µM. With `Cn1cc(-c2cn(-c3ccc(OC(F)(F)F)cc3)c(=O)cc2Oc2cccc(F)c2)cn1`, the EC50 was < 50 µM. As for `O=c1ccc(-c2cccc(Cl)c2)cn1-c1cccc(C(F)(F)F)c1`, the EC50 is < 50 µM. The result for `Cc1cc(=O)n(-c2ccc3c(c2)OCCO3)cc1-c1ccc(F)cc1` reads > 200 µM. Regarding `Cn1cc(-c2cn(-c3ccc(OC(F)(F)F)cc3)c(=O)cc2N2CCc3ccccc3C2)cn1`, the EC50 result was “in the range around 125 µM”. In the case of `Cc1cc(=O)n(-c2ccc(OC(F)(F)F)cc2)cc1-c1cn[nH]c1`, the EC50 was < 50 µM. Consider `C[C@@H]1CCC(=O)N(c2ccccc2)C1`, for which the EC50 is > 200 µM. The result for `O=c1c2[nH]cnc2c(-c2cn[nH]c2)cn1-c1ccc(OC(F)(F)F)cc1` reads < 50 µM; that for `Cn1cc(-c2cn(-c3ccccc3)c(=O)c3c2CCCC3)cn1`, < 50 µM. The result for `Cc1cc(-c2ccc(F)cc2)cn(-c2ccccc2)c1=O` reads < 50 µM; that for `COc1ccc(-c2ccc(=O)n(-c3ccc(Cl)cc3)c2)cc1`, “in the range around 125 µM”; that for `Cc1cc(=O)n(-c2ccc(OC(F)(F)F)cc2)cc1-c1ccc2c(c1)NC(=O)CO2`, < 50 µM.

For orientation: EC50 means the concentration that produces a half-maximal response.

The record behind these values is ChEMBL document CHEMBL5725356, “Anti-fibrotic pyridinones” (2017).
